Measurements from patent publication US20120164731A1, “METHOD OF INDUCING DIFFERENTIATION FROM PLURIPOTENT STEM CELLS TO SKELETAL MUSCLE PROGENITOR CELLS” (KYOTO UNIVERSITY, priority 2009, published 2012).

What was measured:
[1] = test system: mouse iPS cells (iPS-Nanog-20D-17); assay: Induction of differentiation from iPS cells to primitive streak mesodermal cells (PDGFRα FACS, viable cell count); assay type: cell-based; settings: for cell proliferation / survival: IGF-1 and/or HGF added or not
Method: Differentiation of iPS cells was induced using a serum-free basal medium for differentiation induction prepared by adding 0.2% bovine serum albumin (Sigma), 100 μM 2-mercaptoethanol (Invitrogen), 50 mU/L penicillin and 50 μg/L streptomycin to S-Clone SF-03 (Sanko Junyaku Co., Ltd.). Various growth factors were added to the medium, and their effects were examined. Eventually, the following growth factors were used at the concentrations indicated.
(§1) Undifferentiated cells were detached from the dish as in the passage subculture, and twice washed with the differentiation induction basal medium. 10 ml of the culture medium for the first 3 days was added to a 10 cm cell culture dish coated with collagen type IV (Nitta Gelatin), and 500,000 undifferentiated iPS cells were seeded thereinto. The cells were cultured in an incubator adjusted to 37° C., 5% CO2, and 100% humidity for 3 days, after which the medium was replaced with the culture medium for the last 3 days. The cells were thus differentiation-induced for a total of 6 days, from which skeletal muscle progenitor cells were separated by the method of cell separation described below, and these were used in the subsequent experiments.
(§2) The mouse iPS cells induced by the above-described differentiation induction method were divided into a population of skeletal muscle progenitor cells and a population of other cells using FACS Aria (Becton Dickinson). The cells were stained using antibodies as described previously [Sakurai, H. et al., Stem Cells 24, 575-586 (2006)]. Three different rat monoclonal antibodies were used: APA5 (anti-PDGFRα), ECCD2 (anti-ECD) and SM/C-2.6. The former two were supplied by Dr. Nishikawa [Sakurai, H. et al., Stem Cells 24, 575-586 (2006)], and the remaining one by Dr. Yamamoto [Fukada, S. et al., Exp Cell Res., 296, 245-255 (2004)]. The APA5 and SM/C-2.6 were conjugated with biotin (PIERCE) and fluorescently labeled using streptavidin-APC as a secondary antibody. The ECCD2 was directly conjugating with Alexa488 (Molecular Probes) by a conventional method and fluorescently labeled. The fluorescently labeled cells were suspended in Hanks' balanced salt solution (Invitrogen) supplemented with 1% bovine serum albumin to obtain a cell density of 5,000,000 cells per mL, fluorescence was examined and analyzed using FACS Aria, and the PDGFRα-positive fraction was separated and recovered.
With this in mind, a first experiment was performed to determine whether the addition of growth factors other than BMP4 supports the survival of iPS cells and promotes their differentiation into primitive streak mesodermal cells (hereinafter sometimes simply referred to as “mesoderm”). Activin A, IGF-1, and HGF were examined as growth factor candidates (FIG. 1A, italicized). With Activin A added to all culture conditions examined, 4 conditions were analyzed: “neither IGF-1 nor HGF was added”, “IGF-1 was added alone”, “HGF was added alone”, and “both were added”. The iPS cell used was iPS-Nanog-20D-17. […] However, the viable cell count was about 3 times higher in the IGF-1-alone addition group than in the IGF-1-HGF-concurrent addition group (FIG. 1B, right).
The influences of the concentrations of BMP4 and Activin A in the induction of differentiation from iPS cells to primitive streak mesodermal cells were examined. Specifically, of the addition conditions of Activin A 10 ng/ml, BMP4 10 ng/ml, and IGF-1 10 ng/ml determined in the previous section, the concentration of Activin A alone (FIG. 2A) or BMP4 alone (FIG. 2B) was changed, and the expression of PDGFRα was evaluated by FACS.

iPS-DsRed = assay: Induction of differentiation from primitive streak mesodermal cells to skeletal muscle progenitor cells (SM/C-2.6 FACS, Myf5 RT-PCR); assay type: cell-based, mouse
Method: as §1, §2
RNA was extracted from the recovered cells using Sepasol Reagent (Nacalai Tesque). cDNA was synthesized from the RNA using the SuperScriptll reverse transcription kit (Invitrogen). DNA was amplified by 25-35 cycles of PCR reaction using the ExTaq PCR reagent kit (Takara Bio) and the PTC200 thermal cycler (DNA engine), and analyzed by electrophoresis. The PCR primers shown below were used.
To find a method for effectively inducing the differentiation, the present inventors investigated the potential of the Wnt signal inducer LiCl, used alone or in combination with other growth factors, for inducing the differentiation of iPS cells into skeletal muscle progenitor cells. Selected growth factor candidates, i.e., Sonic Hedgehog (Shh) and IGF-1, were added to the differentiation medium for the last 3 days, and their influences on differentiation into skeletal muscle progenitor cells were examined (FIG. 3A). The iPS cell used was iPS-DsRed. The degree of differentiation into skeletal muscle progenitor cells was analyzed with the expression of SM/C-2.6 as an index. Also analyzed was the expression of Myf5, which is a skeletal muscle-specific transcription factor in the RNA as a whole. SM/C-2.6 is a marker capable of specifically staining satellite cells, which are skeletal muscle stem cells [Fukada, S. et al., Exp Cell Res., 296, 245-255 (2004)], and has been reported to enable the separation of skeletal muscle progenitor cells from a mouse ES cell induction system [Chang, H. et al., Generation of transplantable, functional satellite-like cells from mouse embryonic stem cells. Faseb J., 23: 1907-1919 (2009)].
First, the influence of the addition of Shh was determined. iPS-DsRed was induced to differentiate as illustrated in FIG. 3A. During the last 3 days, the cells were cultured in the presence of LiCl, alone or with the addition of Shh 20 ng/ml; the cells were induced to differentiate for a total of 6 days, stained with SM/C-2.6, and evaluated.

iPS cells = assay: Timing of LiCl addition, appearance efficiency of PDGFRα-positive fraction by FACS; assay type: cell-based, mouse; settings: continuous addition of LiCl from day 1 or day 2 from start of differentiation induction
Method: A method of increasing the appearance efficiency of skeletal muscle progenitor cells derived from iPS cells was studied. Specifically, LiCl, which was added on day 3 from the start of the differentiation induction in the previous Examples, was added from a different day. Samples with addition of LiCl from day 0, 1, 2, 3 or 4 from the start of the differentiation induction were analyzed for the appearance efficiency of the PDGFRα-positive fraction by FACS analysis. As a result, not less than 60% of the induction efficiency could be reproduced by continuous addition of LiCl from day 1 or day 2 from the start of the differentiation induction (FIG. 8B). This method could also be reproduced with other iPS cell clone (iPS-Ng-20D-17).

[2] = iPS-Nanog-20D-17, Activin A added to all conditions
[3] = IGF-1 experiment, IGF-1-free or IGF-1 added, irrespective of concentration
[4] = induction of skeletal muscle progenitor cells, last 3 days
[5] = Shh experiment, LiCl alone or with Shh during last 3 days

## insulin-like growth factor-1 [IGF-1]
[1]; iPS-Nanog-20D-17, Activin A added to all conditions, with BMP4, starting 3 days
  differentiation rate (mesoderm differentiation, expression of PDGFRα as an index): 61.5%
[1]; [2]
  cell proliferation / survival: Cell proliferation was observed
[1]; iPS-Nanog-20D-17, with Activin A
  viable cell count, IGF-1-alone addition group versus IGF-1-HGF-concurrent addition group: about 3 times
iPS-DsRed; IGF-1 5 ng/ml addition group, last 3 days
  percentage of SM/C-2.6-positive cells: 16.8%
iPS-DsRed; [3]
  expression of Myf5 (RT-PCR): the expression of Myf5 was evident
iPS-DsRed; [4]
  effective concentration: ≥ 5 ng/mL

## sonic hedgehog [Shh]
iPS-DsRed; Shh 20 ng/ml addition group, with LiCl, last 3 days, total 6 days
  percentage of SM/C-2.6-positive cells: 38.8%
iPS-DsRed; [5]
  expression of Myf5 (RT-PCR): Myf5 was expressed
iPS-DsRed; [4]
  optimal concentration: about 20 ng/ml

## HGF: growth factor candidate examined with Activin A and IGF-1
[1]; [2]
  cell proliferation / survival: little cells surviving

## [Cl-].[Li+] [LiCl, lithium chloride, reference compound]
iPS-DsRed; IGF-1-free group, last 3 days
  percentage of SM/C-2.6-positive cells: 11.9%
iPS-DsRed; [3]
  expression of Myf5 (RT-PCR): no expression of Myf5 was observed
iPS-DsRed; [5]
  expression of Myf5 (RT-PCR): not observed at all
iPS-DsRed; Shh-free group: LiCl alone during last 3 days, total 6 days
  percentage of SM/C-2.6-positive cells: 28.5%
iPS cells
  induction efficiency (PDGFRα-positive fraction): not less than 60%

B1: Activin A (protein, UniProt P08476 311-426, looked up)
Inhibin beta A chain: GLECDGKVNICCKKQFFVSFKDIGWNDWIIAPSGYHANYCEGECPSHIAGTSGSSLSFHSTVINHYRMRGHSPFANLKSCCVPTKLRPMSMLYYDDGQNIIKKDIQNMIVEECGCS
modifications: Inhibin beta A chain
notes: growth factor (Peprotech) added to the differentiation medium for the first 3 days
[1]; Activin A at 5 ng/ml or more, BMP4 10 ng/ml, IGF-1 10 ng/ml
  percentage of PDGFRα-positive cells induced: exceeded 40%
[1]; BMP4 10 ng/ml, IGF-1 10 ng/ml
  viable cell count for Activin A 0 ng/ml compared with 10 ng/ml: about one-sixth level
[1]; based on PDGFRα-positive percentage and viable cell count
  concentrations at which more effective: 5 to 10 ng/mL
[1]; [2]
  cell proliferation / survival: some cells survived

B2: bone morphogenetic protein 4 (protein, UniProt P12644 293-408, looked up)
Bone morphogenetic protein 4: SPKHHSQRARKKNKNCRRHSLYVDFSDVGWNDWIVAPPGYQAFYCHGDCPFPLADHLNSTNHAIVQTLVNSVNSSIPKACCVPTELSAISMLYLDEYDKVVLKNYQEMVVEGCGCR
notes: as for B1
[1]; Activin A 10 ng/ml, IGF-1 10 ng/ml
  viable cell count when BMP4 concentration decreased: remained nearly constant
[1]; BMP4 10 ng/ml, Activin A 10 ng/ml, IGF-1 10 ng/ml
  percentage of PDGFRα-positive cells: 44.7%
[1]; BMP4 at all concentrations of 5 ng/ml or less, Activin A 10 ng/ml, IGF-1 10 ng/ml
  percentage of PDGFRα-positive cells: 25-28%
